Values quoted from earlier work, collected in patent US20220161013A1, “IMPROVED DELIVERY OF DRUG THERAPY TO THE CNS BY ULTRASOUND-BASED OPENING OF THE BLOOD-BRAIN BARRIER” (NORTHWESTERN UNIVERSITY, priority 2019, published 2022).

Assays:
[1] = local convection-enhanced delivery
[2] = tested on: orthotropic glioma xenograft model; conditions: with valspodar, nude mice
[3] = target: p-Glycoprotein (Homo sapiens, UniProt P08183)
Sequence of p-Glycoprotein (P08183 whole entry): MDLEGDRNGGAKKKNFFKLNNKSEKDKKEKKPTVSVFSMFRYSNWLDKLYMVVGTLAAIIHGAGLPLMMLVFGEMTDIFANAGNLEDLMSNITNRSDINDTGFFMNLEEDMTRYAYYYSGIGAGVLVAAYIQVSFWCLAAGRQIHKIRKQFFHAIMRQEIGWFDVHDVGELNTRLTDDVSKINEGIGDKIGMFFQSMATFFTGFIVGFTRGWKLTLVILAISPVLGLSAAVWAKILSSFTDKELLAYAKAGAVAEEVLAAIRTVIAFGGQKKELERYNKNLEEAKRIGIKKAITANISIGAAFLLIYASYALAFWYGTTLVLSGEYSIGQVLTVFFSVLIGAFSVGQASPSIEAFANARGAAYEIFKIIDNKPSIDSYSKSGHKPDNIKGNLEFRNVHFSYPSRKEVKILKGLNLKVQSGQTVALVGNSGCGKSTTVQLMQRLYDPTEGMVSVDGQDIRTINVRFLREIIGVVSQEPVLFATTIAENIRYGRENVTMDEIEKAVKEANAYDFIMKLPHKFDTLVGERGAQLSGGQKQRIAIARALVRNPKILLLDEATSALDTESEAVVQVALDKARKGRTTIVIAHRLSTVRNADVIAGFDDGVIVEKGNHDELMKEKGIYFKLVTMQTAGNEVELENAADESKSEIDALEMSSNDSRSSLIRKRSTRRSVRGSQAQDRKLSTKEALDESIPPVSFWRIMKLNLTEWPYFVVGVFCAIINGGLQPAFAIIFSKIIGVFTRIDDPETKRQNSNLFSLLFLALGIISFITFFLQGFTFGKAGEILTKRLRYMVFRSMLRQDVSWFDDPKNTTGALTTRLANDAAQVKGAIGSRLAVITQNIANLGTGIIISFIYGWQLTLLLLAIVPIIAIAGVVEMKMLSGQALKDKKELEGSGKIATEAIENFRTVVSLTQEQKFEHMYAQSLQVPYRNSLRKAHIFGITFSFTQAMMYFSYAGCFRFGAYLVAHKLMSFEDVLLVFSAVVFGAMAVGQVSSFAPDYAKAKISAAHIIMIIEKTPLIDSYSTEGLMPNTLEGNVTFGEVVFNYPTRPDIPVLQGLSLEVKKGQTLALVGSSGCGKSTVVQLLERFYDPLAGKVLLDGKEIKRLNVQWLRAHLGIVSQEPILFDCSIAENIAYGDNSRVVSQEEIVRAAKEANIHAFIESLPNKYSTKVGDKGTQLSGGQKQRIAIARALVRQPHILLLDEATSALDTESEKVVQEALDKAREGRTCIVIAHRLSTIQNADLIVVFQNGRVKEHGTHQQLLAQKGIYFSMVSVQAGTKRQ

SMILES: CC(=O)O[C@H]1C(=O)[C@@]2(C)[C@H]([C@H](OC(=O)c3ccccc3)[C@]3(O)C[C@H](OC(=O)[C@H](O)[C@@H](NC(=O)c4ccccc4)c4ccccc4)C(C)=C1C3(C)C)[C@]1(OC(C)=O)CO[C@@H]1C[C@@H]2O [PTX, paclitaxel]
- response rate [1]: 73%
- effectiveness when using p-Glycoprotein blocker valspodar [2]: significant increased effectiveness
- substrate for the multidrug resistance protein p-Glycoprotein [3]: substrate
